Assay results reported in US9725445B2, “Cycloalkyl nitrile pyrazolo pyridones as Janus kinase inhibitors” (Merck Sharp & Dohme Corp., priority 2013, dated 2017).

The compounds below were run against JAK1 (Homo sapiens (Human), UniProt P23458) (assay: Jak biochemical HTRF assay, JAK1). Details: HTRF biochemical assay, recombinant GST-tagged catalytic domain; read-out: JAK1 IC50.
JAK1, sequence (P23458 875-1153): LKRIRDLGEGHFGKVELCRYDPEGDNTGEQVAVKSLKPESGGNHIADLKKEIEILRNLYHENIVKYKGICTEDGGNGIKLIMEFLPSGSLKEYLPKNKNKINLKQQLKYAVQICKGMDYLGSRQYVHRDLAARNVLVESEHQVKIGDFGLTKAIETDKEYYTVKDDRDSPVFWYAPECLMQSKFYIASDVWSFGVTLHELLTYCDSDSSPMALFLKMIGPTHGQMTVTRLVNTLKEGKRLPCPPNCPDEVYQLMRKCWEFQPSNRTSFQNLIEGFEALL
Description: Jak Biochemical HTRF Assay Protocol
The ability of compounds to inhibit the activity of JAK1, JAK2, JAK3, and Tyk2 was measured using a recombinant purified GST-tagged catalytic domain for each enzyme (Invitrogen JAK1 #M4290, JAK2 #M4290, JAK3 #M4290, Tyk2 #M4290) in an HTRF format biochemical assay. […] The basic assay protocol is as follows: First, 250 nL of diluted compounds in DMSO were dispensed into the wells of a dry 384-well Black plate (Greiner #781076) using a Labcyte Echo 555 acoustic dispenser. Subsequent reagent additions employed an Agilent Bravo. […] After equilibration, 2 μL of 10×ATP in 1× assay buffer was added to initiate the kinase reaction and the plates were shaken and then incubated at room temperature for 120 minutes. […] Plates were shaken and centrifuged and then incubated 60 minutes at room temperature and then read on a Perkin Elmer Envision (λex=337 nm, λem=665 and 615 nm, TRF delay time=20 μs). HTRF signal=10,000*665 nm reading/615 nm reading. After normalization to untreated controls, the percent inhibition of the HTRF signal at each compound concentration was calculated. The plot of percent inhibition versus the log of compound concentration was fit with a 4-parameter dose response equation to calculate IC50 values.
Final Reaction Conditions were:
Examples of the instant invention were evaluated in JAK1 and JAK2 in vitro binding assays.
Compound `CC1c2cc(Nc3nn([C@H]4CCCC[C@@H]4C#N)c4cc[nH]c(=O)c34)ccc2S(=O)(=O)N1CC(F)(F)F` (single isomer, unassigned) [Example 3-129, (1S,2S)-2-(3-(((R or S)-3-methyl-1,1-dioxido-2-(2,2,2-trifluoroethyl)-2,3-dihydrobenzo[d]isothiazol-5-yl)amino)-4-oxo-4,5-dihydro-1H-pyrazolo[4,3-c]pyridin-1-yl)cyclohexanecarbonitrile] has an IC50 of 1.1 nM. With `CC1(C)C(O)c2cc(Nc3nn([C@H]4CCCC[C@@H]4C#N)c4cc[nH]c(=O)c34)ccc2S1(=O)=O` (single isomer, unassigned) [Example 3-172, (1S,2S)-2-(3-{[(3S or 3R)-3-hydroxy-2,2-dimethyl-1,1-dioxido-2,3-dihydro-1-benzothiophen-5-yl]amino}-4-oxo-4,5-dihydro-1H-pyrazolo[4,3-c]pyridin-1-yl)cyclohexanecarbonitrile] the IC50 was 0.39 nM. Compound `N#C[C@H]1CCCC[C@@H]1n1nc(Nc2ccc3c(c2)CC2(CC2)C3(O)C(F)(F)F)c2c(=O)[nH]ccc21` (single isomer, unassigned) [Example 3-123, (1S,2S)-2-(3-(((R or S)-1′-hydroxy-1′-(trifluoromethyl)-1′,3′-dihydrospiro[cyclopropane-1,2′-inden]-5′-yl)amino)-4-oxo-4,5-dihydro-1H-pyrazolo[4,3-c]pyridin-1-yl)cyclohexanecarbonitrile] has an IC50 of 0.18 nM. `N#C[C@@H]1C[C@@H](O)CC[C@H]1n1nc(Nc2ccc(C(F)(F)F)cc2)c2c(=O)[nH]ccc21` [Example 3-89, (1R,2R,5S)-5-hydroxy-2-(4-oxo-3-((4-(trifluoromethyl)phenyl)amino)-4,5-dihydro-1H-pyrazolo[4,3-c]pyridin-1-yl)cyclohexanecarbonitrile] showed an IC50 of 9.8 nM. Compound `N#C[C@H]1CCCC[C@@H]1n1nc(Nc2ccc([C@]3(O)CC[C@H](C(=O)O)CC3)cc2)c2c(=O)[nH]ccc21` [Example 17-2] has an IC50 of 0.53 nM. `C[C@H](N[C@@H]1CC[C@H](n2nc(Nc3ccc(C(F)(F)F)cc3)c3c(=O)[nH]ccc32)[C@@H](C#N)C1)C1CC1` [Example 5-11, (1S,2S,5R)-5-(((S)-1-cyclopropylethyl)amino)-2-(4-oxo-3-((4-(trifluoromethyl)phenyl)amino)-4,5-dihydro-1H-pyrazolo[4,3-c]pyridin-1-yl)cyclohexanecarbonitrile] showed an IC50 of 3 nM. Work on `C[C@H](N[C@H]1CC[C@@H](n2nc(Nc3ccc(C(F)(F)F)cc3)c3c(=O)[nH]ccc32)[C@H](C#N)C1)C1CC1` [Example 5-13, (1R,2R,5S)-5-(((S)-1-cyclopropylethyl)amino)-2-(4-oxo-3-((4-(trifluoromethyl)phenyl)amino)-4,5-dihydro-1H-pyrazolo[4,3-c]pyridin-1-yl)cyclohexanecarbonitrile] yielded an IC50 of 97 nM. For `N#C[C@H]1CCCC[C@@H]1n1nc(Nc2ccc(-c3ccon3)cc2)c2c(=O)[nH]ccc21` [Example 15-4, (1S,2S)-2-{3-[(4-isoxazol-3-ylphenyl)amino]-4-oxo-4,5-dihydro-1H-pyrazolo[4,3-c]pyridin-1-yl}cyclohexanecarbonitrile], the IC50 was 0.18 nM. In the case of `N#C[C@H]1CCCC[C@@H]1n1nc(Nc2ccc3c(c2)CN(CC2CC2)C3)c2c(=O)[nH]ccc21` [Example 3-77, (1S,2S)-2-(3-{[2-(cyclopropylmethyl)-2,3-dihydro-1H-isoindol-5-yl]amino}-4-oxo-4,5-dihydro-1H-pyrazolo[4,3-c]pyridin-1-yl)cyclohexanecarbonitrile], the IC50 is reported as 0.52 nM. For `CC(C)(C)N1Cc2cc(Nc3nn([C@@H]4CCCCC[C@H]4C#N)c4cc[nH]c(=O)c34)ccc2S1(=O)=O` (single isomer, unassigned) [Example 3-177, (1R,2R or 1S,2S)-2-{3-[(2-tert-butyl-1,1-dioxido-2,3-dihydro-1,2-benzisothiazol-5-yl)amino]-4-oxo-4,5-dihydro-1H-pyrazolo[4,3-c]pyridin-1-yl}cycloheptanecarbonitrile], the IC50 was 0.046 nM. `N#C[C@H]1CCCC[C@@H]1n1nc(Nc2ccc3c(c2)C(O)(CO)CCS3(=O)=O)c2c(=O)[nH]ccc21` (stereo partly drawn) [Example 3-48, (1S,2S)-2-(3-{[4-hydroxy-4-(hydroxymethyl)-1,1-dioxido-3,4-dihydro-2H-thiochromen-6-yl]amino}-4-oxo-4,5-dihydro-1H-pyrazolo[4,3-c]pyridin-1-yl)cyclohexanecarbonitrile] was tested, and the IC50 was 18 nM. `CC(C)(C)N1Cc2cc(Nc3nn([C@@H]4CCCCC[C@@H]4C#N)c4cc[nH]c(=O)c34)ccc2S1(=O)=O` (single isomer, unassigned) [Example 3-179, (1S,2R or 1R,2S)-2-{3-[(2-tert-butyl-1,1-dioxido-2,3-dihydro-1,2-benzisothiazol-5-yl)amino]-4-oxo-4,5-dihydro-1H-pyrazolo[4,3-c]pyridin-1-yl}cycloheptanecarbonitrile] showed an IC50 of 0.46 nM. `N#C[C@H]1CCCC[C@@H]1n1nc(Nc2ccc([C@]3(O)CC[C@@H](C(=O)O)CC3)cc2)c2c(=O)[nH]ccc21` (racemic) [Example 17-1, (1R,4S and 1S,4R)-4-(4-(1-((1S,2S)-2-Cyanocyclohexyl)-4-oxo-4,5-dihydro-1H-pyrazolo[4,3-c]pyridin-3-ylamino)phenyl)-4-hydroxycyclohexanecarboxylic acid] showed an IC50 of 0.095 nM. For `C[C@H](N[C@H]1CC[C@H](n2nc(Nc3ccc(C(F)(F)F)cc3)c3c(=O)[nH]ccc32)[C@@H](C#N)C1)C1CC1` [Example 5-12, (1S,2S,5S)-5-(((S)-1-cyclopropylethyl)amino)-2-(4-oxo-3-((4-(trifluoromethyl)phenyl)amino)-4,5-dihydro-1H-pyrazolo[4,3-c]pyridin-1-yl)cyclohexanecarbonitrile], the IC50 was 1.2 nM. With `CC(C)(C)OC(=O)C1CCC(N2Cc3cc(Nc4nn([C@H]5CCCC[C@@H]5C#N)c5cc[nH]c(=O)c45)ccc3C2=O)CC1` (single isomer, unassigned) [Example 3-135, (cis or trans)tert-butyl 4-(5-((1-((1S,2S)-2-cyanocyclohexyl)-4-oxo-4,5-dihydro-1H-pyrazolo[4,3-c]pyridin-3-yl)amino)-1-oxoisoindolin-2-yl)cyclohexanecarboxylate] the IC50 was 0.22 nM. `Cc1cc(Nc2nn([C@H]3CCCC[C@@H]3C#N)c3cc[nH]c(=O)c23)ccc1C(C(C)C)n1nccn1` (single isomer, unassigned) [Example 15-36, (1S,2S)-2-[3-({3-methyl-4-[(1R or 1S)-2-methyl-1-(2H-1,2,3-triazol-2-yl)propyl]phenyl}amino)-4-oxo-4,5-dihydro-1H-pyrazolo[4,3-c]pyridin-1-yl]cyclohexanecarbonitrile] gave an IC50 of 0.46 nM. `CN(C)S(=O)(=O)c1ccc(Nc2nn([C@H]3CCCC[C@@H]3C#N)c3cc[nH]c(=O)c23)cc1CN` [Example 8-1, 2-(Aminomethyl)-4-((1-((1S,2S)-2-cyanocyclohexyl)-4-oxo-4,5-dihydro-1H-pyrazolo[4,3-c]pyridin-3-yl)amino)-N,N-dimethylbenzenesulfonamide] was tested, and the IC50 was 0.78 nM. `CC(C)C(c1ccc(Nc2nn([C@H]3CCCC[C@@H]3C#N)c3cc[nH]c(=O)c23)cc1)n1nccn1` (single isomer, unassigned) [Example 15-31, (1S,2S)-2-[3-({4-[(1R or 1S)-2-methyl-1-(2H-1,2,3-triazol-2-yl)propyl]phenyl}amino)-4-oxo-4,5-dihydro-1H-pyrazolo[4,3-c]pyridin-1-yl]cyclohexanecarbonitrile] gave an IC50 of 0.25 nM. `CC(C)OC(=O)C(C)(C)C(O)(c1ccc(Nc2nn([C@H]3CCCC[C@@H]3C#N)c3cc[nH]c(=O)c23)cc1)C(F)(F)F` (single isomer, unassigned) [Example 3-119, (R or S) Isopropyl 3-(4-((1-((1S,2S)-2-cyanocyclohexyl)-4-oxo-4,5-dihydro-1H-pyrazolo[4,3-c]pyridin-3-yl)amino)phenyl)-4,4,4-trifluoro-3-hydroxy-2,2-dimethylbutanoate] showed an IC50 of 5.3 nM. `COCC(C)(C)CN1Cc2cc(Nc3nn([C@H]4CCCCC[C@@H]4C#N)c4cc[nH]c(=O)c34)ccc2S1(=O)=O` (single isomer, unassigned) [Example 15-49, (1S,2S or 1R,2R)-2-(3-{[2-(3-methoxy-2,2-dimethylpropyl)-1,1-dioxido-2,3-dihydro-1,2-benzisothiazol-5-yl]amino}-4-oxo-4,5-dihydro-1H-pyrazolo[4,3-c]pyridin-1-yl)cycloheptanecarbonitrile] showed an IC50 of 5.1 nM. `CC(C)(C)N1Cc2cc(Nc3nn([C@H]4CCCCC[C@@H]4C#N)c4cc[nH]c(=O)c34)ccc2S1(=O)=O` (single isomer, unassigned) [Example 3-176, (1S,2S or 1R,2R)-2-{3-[(2-tert-butyl-1,1-dioxido-2,3-dihydro-1,2-benzisothiazol-5-yl)amino]-4-oxo-4,5-dihydro-1H-pyrazolo[4,3-c]pyridin-1-yl}cycloheptanecarbonitrile] gave an IC50 of 1.9 nM. `N#C[C@@H]1CCCCC[C@H]1n1nc(Nc2ccc3c(c2)CN(C(=O)N2CCCCC2)C3)c2c(=O)[nH]ccc21` (single isomer, unassigned) [Example 15-53, (1R,2R or 1S,2S)-2-(4-oxo-3-{[2-(piperidin-1-ylcarbonyl)-2,3-dihydro-1H-isoindol-5-yl]amino}-4,5-dihydro-1H-pyrazolo[4,3-c]pyridin-1-yl)cycloheptanecarbonitrile] showed an IC50 of 0.42 nM.
